pEC50, pIC50: −log10 of the molar value. “And” between values parts separate entries of the source, which are not always exact repeats. Equal entries are not always repeated. Where two headings read alike, the source gives them in different places.
Key:
ICR mice [1] = assay: Toxicological experiment in mice, 14-day repeated oral gavage (toxicity study); type: in vivo
Description: (§1) Experimental method: 212 ICR mice (SPF grade), half male and half female. Animals in groups 1-5 were used for toxicity study, with 10 male and 10 female animals in each group; and animals in groups 6-9 were used for toxicokinetic study, with 14 male and 14 female animals in each group (2 of them were spare animals). […] Animals in Groups 1-9 were administered orally once a day for 14 consecutive days.

[2] = Metabolic stability in (human) liver microsomes; type: in vitro ADME; details: pH 7.4, test concentration 1 μM
Description: 3×NADPH stock solution (6 mM, 5 mg/mL) was prepared by dissolving NADPH in the buffer solution; 4. 30 μL of 1.5 μM additive solution containing 0.75 mg/mL microsomal solution was distributed to the plates designated for different time points (0, 5, 15, 30, 45 minutes); 5. at 0 min, 150 μL of ACN containing IS was added to the wells of the plate, followed by addition of 15 μL of NADPH stock solution (6 mM, step 3); 6. all other plates were pre-incubated at 37° C. for 5 minutes; 7. adding 15 μL of NADPH stock solution to the plate to start the reaction and timing; 8. 150 μL of ACN containing IS was added to the wells of the corresponding plates to stop the reaction at 5 min, 15 min, 30 min and 45 min, respectively; 9. after quenching, the plates were shaken on a shaker for 10 minutes (600 rpm/min) and then centrifuged at 6000 rpm for 15 minutes; 10. 80 μL of supernatant was transferred from each well to a 96-well sample plate containing 140 μL water for LC/MS analysis.
Detection method: LC-MS/MS-11 (8050), internal standard: tolbutamide; MS conditions: positive ion ESI for testosterone and test compound, and negative ion ESI for tolbutamide; Mobile phases: mobile phase A is 0.1% FA in water, and mobile phase B is 0.1% FA in ACN; Column and specification: ACQUITY UPLC HSS T3 1.8 um 2.1*50 mm.

Human GLP-1R = target: T1, Human GLP-1R (Homo sapiens, UniProt P43220); assay: GLP-1R agonistic activity assay (HTRF cAMP, 293A GFP-GLP-1R cells); type: cell-based; details: cAMP level, geometric mean
T1 construct: expressed in transfected cells
Source text: The method was a competitive immunoassay.

[3] = Pharmacokinetic experiment in cynomolgus monkeys; type: in vivo, cynomolgus monkey; details: for Vd: read-out: Vss; for F: oral 20 mg/kg vs intravenous 2 mg/kg
Description: Experimental objective: To evaluate the pharmacokinetic profile of compound 1 and compare it with compound 20 (control compound).
Experimental method: 6 male Non-juvenile cynomolgus monkeys, 4˜5 kg, were purchased from Huazheng Experimental Animal Center. Group IV was administered intravenously at a dose of 2 mg/kg (5 mL/kg) (n=3), and the group PO was administered orally at a dose of 20 mg/kg (10 mL/kg) (n=3). Approximately 500 μL blood was collected from cephalic vein and saphenous vein at each experimental time point, and centrifuged at 2,000 g for 5 min (4° C.) within 15 min after sampling for subsequent analysis.

hERG potassium channels = target: T2, hERG potassium channels (Homo sapiens, UniProt Q12809); assay: Test for inhibition of hERG potassium channels (whole-cell patch clamp, HEK-293-hERG cells); type: cell-based; details: for hERG (IR): inhibition rate of tail current
T2 construct: expressed in transfected cells; host or cells: HEK-293-hERG cells
Source text: Positive control: Amitriptyline hydrochloride or Terfenadine

[4] = Caco-2 cell transport experiment; type: in vitro ADME; details: human
Description: Caco-2 cells, 77th passage; HBSS, Lot: G210713; ACN+IS (tolbutamide 200 ng/mL); Caco-2 was inoculated on polyethylene (PET) in a 96-well Falcon plate at 2×10^5 cells/cm^2 until a confluent cell monolayer was formed on day 21-28. The culture medium was changed every 3-4 days. The test compound was diluted to a concentration of 10 uM with a transport buffer of 10 mM stock solution (HBSS without BSA) and applied to the apical side or the basolateral side of the cell monolayer. Incubation was carried out at 37° C., 5% CO2, and 95% relative humidity for 120 minutes, and the permeability of the test compound from the A to B direction or the B to A direction was determined in duplicate. The efflux ratio of each compound was determined. Test and reference compounds were quantitated by LC-MS/MS analysis based on the analyte/IS peak area ratio. […] [table]

ICR mice [5] = assay: Toxicological experiment in mice, 14-day repeated oral gavage (toxicokinetic study); type: in vivo, mouse; details: toxicokinetic study, female animals, 200 mg/kg oral once a day for 14 days
Description: as §1

[6] = as above; type: in vivo, mouse; details: ICR, mouse, po, 200 mg/kg, Day 14; for AUC(0-t): plasma
Description: as §1

[7] = intravenous 2 mg/kg, male, individual animals #1, #2, #3, 2 mg/kg
[8] = male, cynomolgus monkey, plasma, iv, 2 mg/kg, intravenous 2 mg/kg, Mean (n=3)
[9] = male, cynomolgus monkey, plasma, iv, 2 mg/kg, intravenous 2 mg/kg, individual animals #1, #2, #3
[10] = male, cynomolgus monkey, plasma, po, 20 mg/kg, oral 20 mg/kg, Mean (n=3)
[11] = oral 20 mg/kg, male, individual animals #4, #5, #6, 20 mg/kg

T2 sequence (Q12809 whole entry): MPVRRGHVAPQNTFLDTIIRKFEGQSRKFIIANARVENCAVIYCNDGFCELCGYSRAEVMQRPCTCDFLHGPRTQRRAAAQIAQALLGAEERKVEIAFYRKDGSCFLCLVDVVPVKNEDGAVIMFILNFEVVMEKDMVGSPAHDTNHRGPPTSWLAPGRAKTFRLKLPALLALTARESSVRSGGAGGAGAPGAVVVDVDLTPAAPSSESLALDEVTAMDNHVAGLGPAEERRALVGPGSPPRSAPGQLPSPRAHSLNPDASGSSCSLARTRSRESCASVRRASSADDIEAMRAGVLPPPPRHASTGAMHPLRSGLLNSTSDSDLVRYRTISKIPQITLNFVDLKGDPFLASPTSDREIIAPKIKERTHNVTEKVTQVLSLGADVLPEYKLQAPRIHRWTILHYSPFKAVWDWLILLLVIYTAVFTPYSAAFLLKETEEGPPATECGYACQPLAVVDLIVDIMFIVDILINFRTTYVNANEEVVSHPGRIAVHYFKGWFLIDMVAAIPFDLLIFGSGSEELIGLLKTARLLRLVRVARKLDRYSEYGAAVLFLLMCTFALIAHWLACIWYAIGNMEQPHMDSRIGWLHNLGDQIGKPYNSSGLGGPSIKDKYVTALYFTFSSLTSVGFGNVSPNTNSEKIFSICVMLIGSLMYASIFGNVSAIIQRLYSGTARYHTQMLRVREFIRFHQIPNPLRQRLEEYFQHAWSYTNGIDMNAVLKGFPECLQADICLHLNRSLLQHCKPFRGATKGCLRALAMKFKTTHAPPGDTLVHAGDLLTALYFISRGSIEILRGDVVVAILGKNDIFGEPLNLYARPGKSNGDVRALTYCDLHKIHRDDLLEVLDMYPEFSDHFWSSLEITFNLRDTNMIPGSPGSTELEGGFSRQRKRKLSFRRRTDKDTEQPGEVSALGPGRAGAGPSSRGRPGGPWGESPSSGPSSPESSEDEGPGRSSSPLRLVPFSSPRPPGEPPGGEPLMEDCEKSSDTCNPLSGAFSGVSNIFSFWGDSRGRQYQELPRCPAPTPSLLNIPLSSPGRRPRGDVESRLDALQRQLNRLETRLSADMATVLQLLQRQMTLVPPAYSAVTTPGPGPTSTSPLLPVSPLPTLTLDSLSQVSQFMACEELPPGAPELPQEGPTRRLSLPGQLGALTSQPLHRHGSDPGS
T1 sequence (P43220 24-463): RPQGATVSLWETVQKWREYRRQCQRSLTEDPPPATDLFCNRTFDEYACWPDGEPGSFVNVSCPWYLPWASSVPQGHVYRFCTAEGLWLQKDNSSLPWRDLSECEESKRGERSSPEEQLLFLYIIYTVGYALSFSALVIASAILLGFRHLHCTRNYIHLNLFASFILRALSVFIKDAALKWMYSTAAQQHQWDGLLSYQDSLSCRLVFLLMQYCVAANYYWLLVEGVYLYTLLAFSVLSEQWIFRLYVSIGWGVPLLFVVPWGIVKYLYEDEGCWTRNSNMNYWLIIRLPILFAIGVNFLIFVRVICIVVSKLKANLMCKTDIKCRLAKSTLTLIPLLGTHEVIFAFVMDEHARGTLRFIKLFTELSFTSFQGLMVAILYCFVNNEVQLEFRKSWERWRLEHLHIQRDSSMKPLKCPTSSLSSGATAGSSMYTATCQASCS

O=C(O)c1ccc2nc(CN3CCC(c4cccc(OCc5ccc(C6COC6)cc5F)n4)CC3)n(C[C@@H]3CCO3)c2c1 [Compound 1, (S)-2-((4-(6-((2-fluoro-4-(oxetan-3-yl)benzyl)oxy)pyridin-2-yl)piperidin-1-yl)methyl)-1-(oxetan-2-ylmethyl)-1H-benzo[d]imidazole-6-carboxylic acid]
non-toxic response dose level (ICR mice [1]; ICR mice, gavage once a day for 14 consecutive days): 200 mg/kg | toxicological effects on experimental animals (conclusion) (ICR mice [1]; at the studied dose (200 mg/kg)): no significant toxicological effects | biochemical analysis of serum (ICR mice [1]; compared to vehicle control): no significant toxicological changes | clinical observation (ICR mice [1]; toxicity study, 100 mg/kg, presumed not related to the test compound): occasionally showed abnormal gait, decreased activity, piloerection and traumatic abnormalities | half-life at 1 μM [2]: 2.17 h | pEC50 (Human GLP-1R): 10.52 | pharmacokinetic profile, orally administered (conclusion) ([3]; compared with control compound 20): significantly better than that of the control compound 20 | AUCINF [3, 7]: 14.9 hr * μM and 13.0 hr * μM and 8749 hr * ng/ml and 7622 hr * ng/ml | AUClast [3, 7]: 14.9 hr * μM and 13.0 hr * μM and 15215 hr * ng/ml and 8739 hr * ng/ml and 7607 hr * ng/ml | CL [3, 7]: 2.19 mL/min/kg and 3.81 mL/min/kg and 4.37 mL/min/kg and 2.18 mL/min/kg and 3.82 mL/min/kg | MRTINF [3, 7]: 0.247 h and 0.242 h | T1/2 [3, 7]: 1.46 h and 1.50 h | Vss [3, 7]: 0.0564 L/kg and 0.0635 L/kg | AUC(0-inf) [3, 8]: 18 µM·h and 10500 ng·h/mL | AUC(0-t) [3, 8]: 17.9 µM·h and 10500 ng·h/mL | MRT inf [3, 8]: 0.292 h | clearance [3, 8]: 3.46 mL/min/kg | half-life [3, 8]: 1.39 h | AUC(0-inf) [3, 9]: 26 µM·h and 15200 ng·h/mL | AUC(0-t) [3, 9]: 26 µM·h | MRT inf [3, 9]: 0.387 h | half-life [3, 9]: 1.23 h | Vd ([3]; male, cynomolgus monkey, plasma, iv, 2 mg/kg, intravenous 2 mg/kg, male, Mean (n=3)): 0.0569 L/kg | Vd ([3]; male, cynomolgus monkey, plasma, iv, 2 mg/kg, intravenous 2 mg/kg, male, individual animals #1, #2, #3): 0.0508 L/kg | AUC(0-inf) [3, 10]: 61.8 µM·h and 36200 ng·h/mL | AUC(0-t) [3, 10]: 34500 ng·h/mL and 58.9 µM·h | MRT inf [3, 10]: 6.71 h | half-life [3, 10]: 5.32 h | Cmax ([3]; male, cynomolgus monkey, plasma, po, 20 mg/kg, oral 20 mg/kg, male, Mean (n=3), read-out: Cmax): 12700 ng/mL and 21.6 µM | Tmax ([3]; male, cynomolgus monkey, plasma, po, 20 mg/kg, oral 20 mg/kg, male, Mean (n=3), read-out: Tmax): 1.67 h | Tmax ([3]; male, cynomolgus monkey, plasma, po, 20 mg/kg, oral 20 mg/kg, male, individual animals #4, #5, #6, read-out: Tmax): 2 h | oral bioavailability (conclusion) ([3]; oral 20 mg/kg): high oral bioavailability | F ([3]; male, Mean (n=3)): 32.8% | F ([3]; male, individual animals #4, #5, #6): 40.5% and 16.2% and 41.8% | AUCINF [3, 11]: 72.8 hr * μM and 37.3 hr * μM and 75.2 hr * μM and 42676 hr * ng/ml and 21853 hr * ng/ml and 44083 hr * ng/ml | AUClast [3, 11]: 72.6 hr * μM and 29.0 hr * μM and 75.1 hr * μM and 42563 hr * ng/ml and 17014 hr * ng/ml and 44038 hr * ng/ml | Cmax [3, 11]: 12500 ng/mL and 2270 ng/mL and 23200 ng/mL | MRTINF [3, 11]: 3.15 h and 14.5 h and 2.47 h | T1/2 [3, 11]: 3.03 h and 10.4 h and 2.52 h | Tmax [3, 11]: 1.00 h | pIC50 (hERG potassium channels): 4.80 | hERG inhibitory activity (conclusion) (hERG potassium channels): Did not Exhibit hERG Inhibitory Activity | hERG (IR) (hERG potassium channels; 1 μM): 3.75% (1 μM) | hERG (IR) (hERG potassium channels; 10 μM): 40.7 (10 μM) % | efflux ratio at 120 min, 10 uM ([4]; Papp(BA)/Papp(AB)): 5.26 | Papp A→B at 120 min, 10 uM ([4]; apical to basolateral, 10 uM, 120 minutes): 3.14 ×10⁻⁶ cm/s | Papp B→A at 120 min, 10 uM ([4]; basolateral to apical, 10 uM, 120 minutes): 16.5 ×10⁻⁶ cm/s | animals found dead (ICR mice [5]): 1/14 | Cmax ([6]; plasma of female animals): 117 µg/mL | Cmax ([6]; plasma of male animals): 81 µg/mL | AUC(0-t) ([6]; female, plasma of female animals, read-out: AUC(0-t) (second value listed)): 271 µg·h/mL | AUC(0-t) ([6]; female, plasma of female animals, read-out: AUC(0-t), the systemic exposure (first value listed)): 291 µg·h/mL | AUC(0-t) ([6]; male, plasma of male animals, read-out: AUC(0-t) (second value listed)): 200 µg·h/mL | AUC(0-t) ([6]; male, plasma of male animals, read-out: AUC(0-t), the systemic exposure (first value listed)): 218 µg·h/mL

Reference: patent US11981666B2, “GLP-1 receptor agonist and composition and use thereof” (HANGZHOU ZHONGMEIHUADONG PHARMACEUTICAL CO., LTD., priority 2021, dated 2024)
